Measurements as given in patent US9902940B2, “Human blood-brain barrier endothelial cells derived from pluripotent stem cells and blood-brain barrier model thereof” (Wisconsin Alumni Research Foundation, priority 2010, dated 2018).
Read-outs that look alike come from different tables or passages of the source.

What was measured:
IMR90-4-derived BMECs = assay: Permeability coefficients (Pe) of radiolabeled small molecules across the IMR90-4-derived BMEC/astrocyte co-culture model
Protocol: For co-culture experiments, primary astrocytes were isolated as previously described^37. Briefly, cortices were isolated from P6 neonatal Sprague Dawley rats (Harlan) and minced in Hank's Balanced Salt Solution (HBSS; Sigma). […] After trituration and filtration, cells were cultured on collagen-I-coated flasks (100 μg/mL; Sigma) in DMEM containing 10% qualified heat-inactivated fetal bovine serum (FBS; Invitrogen), 10% heat-inactivated horse serum (Sigma), 2 mM L-glutamine, and 1% antibiotic-antimycotic (Invitrogen). Human embryonic kidney 293 cells (HEK cells; ATCC) were cultured in DMEM supplemented with 10% FBS, 1 mM sodium pyruvate (Sigma), 2 g/L sodium bicarbonate (Fisher Scientific), 30 mM HEPES (Sigma), and 1% antibiotic-antimycotic, and used as a non-neural cell control. Co-culture of hPSC-derived BMECs was initiated with primary rat astrocytes or HEK cells in either EC medium (called 1% PDS medium in Table 2) or 70:30 (v/v) DMEM/F12 (Sigma/Invitrogen) supplemented with 1% antibiotic-antimycotic, 2% B27 (Invitrogen), and 10% FBS^37 (called 10% FBS medium in Table 2). Trans-endothelial electrical resistance (TEER) measurements were performed using an EVOM voltohmmeter (World Precision Instruments) at the start of co-culture and every 24 h thereafter. The resistance value (Ω×cm^2) of an empty filter coated with collagen/fibronectin was subtracted from each measurement. Permeability coefficients (Pe) were evaluated after 24 h of co-culture as previously described^34. For sodium fluorescein Pe measurements, 10% FBS medium containing 1 μM sodium fluorescein solution was added to the apical chamber of the […]™ filter. 200 μL aliquots were extracted from the basolateral chamber (which contains 1.5 mL of medium) every 30 min and replaced by fresh medium. Using a fluorescent plate reader and calibration curve, the flux of fluorescein to the bottom chamber and permeability coefficients were calculated as described by Calabria et al^34. To determine the Pe of radiolabeled ligands, compounds were diluted to 0.4 μCi in transport buffer (distilled water with 0.12 M NaCl, 25 mM NaHCO3, 3 mM KCl, 2 mM MgSO4, 2 mM CaCl2, 0.4 mM K2HPO4, 1 mM HEPES, and 0.1% bovine serum albumin [BSA; Sigma]) and 0.5 mL were added to the upper chamber. 200 μL aliquots were extracted from the basolateral chamber every 15 min and replaced by fresh buffer. […] [^3H]-vincristine was purchased from American Radiolabeled Chemicals, while all other radiolabeled compounds were acquired from PerkinElmer. All compound incubations were conducted at 37° C., and the radioactive permeability experiments were carried out on a rotator. Triplicate filters were used for all permeability studies and the values listed throughout the Results section are representative of a minimum of two biological replicates.

[1] = cited from earlier work
[2] = system: BBB influx and efflux transporters (GLUT-1, MDR1, BCRP, MRP family, organic cation transporters); conditions: cited from earlier work
[3] = system: p-glycoprotein, BCRP, and the MRP family; assay: Doxorubicin accumulation assay with efflux inhibitors in monocultured IMR90-4-derived BMECs; assay type: in vitro ADME, human; conditions: monoculture; doxorubicin 0.25 μCi, 1 h; 5 μM cyclosporin A, 1 μM Ko143 or 10 μM MK 571
[4] = system: p-glycoprotein, BCRP and MRP family efflux transporters; assay: Apical-to-basolateral transport of doxorubicin with efflux inhibitors, IMR90-4-derived BMEC/astrocyte model; assay type: in vitro ADME, human; conditions: astrocyte co-culture; 60 min; normalized to no inhibitor
p-glycoprotein = p-glycoprotein (Homo sapiens, UniProt P08183)
[5] = system: differentiating IMR90-4 cultures; assay: Claudin-5 and occludin localization and western blots in differentiating cultures under XAV-939; assay type: cell-based, human; conditions: data not shown
Protocol: Cells were washed once with PBS and fixed in either 2% paraformaldehyde or 100% ice-cold methanol for 15 min. The cells were then blocked with 40% goat serum in PBS (40% PBSG). If probing for an intracellular antigen, 0.1% TX-100 was present in the 40% PBSG. The cells were then incubated in 40% PBSG containing primary antibody (see Table 5 for list) for one h at room temperature. After three washes in PBS, cells were incubated in 40% PBSG containing goat anti-rabbit Texas Red (1:500; Invitrogen) or goat anti-mouse Alexa 488 (1:500; Invitrogen). Cell nuclei were labeled with 300 nM 4′,6-Diamidino-2-pheny-lindoldihydrochloride (DAPI) for 10 min. Cells were washed three times in PBS and visualized. In situ hybridization for detection of WNT7A and WNT7B transcripts was conducted similar to the method described by Planell-Saguer et al^58. Briefly, cells were washed once with PBS and fixed in 2% paraformaldehyde for 10 min, followed by permeabilization in PBS containing 0.1% TX-100 for 5 min. Pre-hybridization was performed with a water-based solution containing 3% BSA and 4× saline-sodium citrate buffer (SSC; Fisher), followed by a 1 h hybridization in 4×SSC and 10% dextran sulfate (Fisher) at room temperature. Digoxigenin-labeled locked nucleic acid probes were purchased from Exiqon (sequences found in Table 6). […]

Wnt/β-catenin pathway = assay: Quantitative RT-PCR of genes elevated during BMEC specification under Wnt inhibition; assay type: cell-based, human; conditions: IMR90-4, 7 days UM; SFRP2 250 then 750 ng/mL, or 10 μM XAV-939 from day 2, versus untreated or DMSO
Protocol: Cells were differentiated as previously described. […] For RNA collection, cells were washed once with PBS and dissociated with trypsin or accutase. Total RNA was extracted using an RNeasy Mini Kit (Qiagen) according to the manufacturer's instructions. cDNA was generated from 1 μg of RNA using Omniscript reverse transcriptase (Qiagen) and oligo-dT primers (Invitrogen). Quantitative PCR (qPCR) was then performed using 1 μL of cDNA and iQ SYBR Green Supermix (Bio-Rad) on an iCycler (Bio-Rad). RT-PCR was also performed using GoTaq Green Master Mix (Promega). Primer sequences are supplied in Table 8. Relative expression was quantified using the comparative cycle threshold (CT) method, normalizing to glyceraldehyde-3-phosphate dehydrogenase (GAPDH) expression. Fold difference was calculated as x^−ΔΔCT, where x refers to primer efficiency calculated according LinRegPCR version 12.3^59. Transcript amplification was analyzed by 2% agarose gel electrophoresis of the qPCR or RT-PCR products.

[6] = system: differentiating IMR90-4 iPSC cultures (BMEC specification); assay: Flow cytometry of PECAM-1/GLUT-1 expression in differentiating IMR90-4 cultures under Wnt inhibition; assay type: cell-based, human
Protocol: Cells were harvested via Accutase (Invitrogen) incubation for 2-3 min, fixed in 100% ice-cold methanol for 20 min, and blocked with 40% PBSG for 20 min at room temperature. Primary antibody labeling (Table 5) was performed in 10% PBSG for 1 h at room temperature. IgG controls were used at the same concentration. After a wash with 5% FBS in PBS, secondary antibodies (goat anti-rabbit Alexa 488 and goat anti-mouse Alexa 647; 1:200) in 10% PBSG were added to each sample for 30 min at room temperature. After two washes with 5% FBS in PBS, the samples were analyzed on a FACScaliber flow cytometer. PECAM-1^+ events were quantified using a PECAM-1/forward scatter dot plot referenced to a rabbit IgG control. GLUT-1^+ events were quantified using a GLUT-1/forward scatter dot plot referenced to a 4D UM culture that lacked BMECs. Events that were found in both of these positive gates were classified as PECAM-1^+/GLUT-1^+ cells. βIII tubulin and nestin expression were quantified against rabbit and mouse IgG controls, respectively. Data are presented as two-dimensional dot plots with color codes to indicate events within each gate.

primary human BMECs = primary human BMECs (ref. 56); cited from earlier work
[7] = Sodium fluorescein permeability, IMR90-4-derived BMEC/astrocyte co-culture; assay type: in vitro ADME; conditions: human; IMR90-4-derived BMECs, astrocyte co-culture, 1 μM sodium fluorescein; read-out: fluorescein permeability coefficient (Pe) (converted)
Protocol: (§1) Permeability coefficients were evaluated after 24 hours of co-culture as previously described. […] Using a fluorescent plate reader and calibration curve, the rate of fluorescene influx to the bottom chamber was calculated, and final values for permeability coefficients were then calculated according to Calabria et al.^34.

[8] = Sodium fluorescein permeability, DF19-9-11T-derived BMECs; assay type: in vitro ADME; conditions: human, 1 μM sodium fluorescein, read-out: fluorescein permeability coefficient (Pe), average (converted)
Protocol: as §1

hCMEC/D3 line = hCMEC/D3 line (ref. 9); cited from earlier work
[9] = IMR90-4-derived BMEC/astrocyte co-culture model
[10] = IMR90-4-derived BMECs co-cultured with rat astrocytes, radiolabeled compound, apical to basolateral over 1 h, 37° C., mean ± SD of biological replicates
[11] = efflux transporter substrates (Table 6)

p-glycoprotein, sequence (P08183 whole entry): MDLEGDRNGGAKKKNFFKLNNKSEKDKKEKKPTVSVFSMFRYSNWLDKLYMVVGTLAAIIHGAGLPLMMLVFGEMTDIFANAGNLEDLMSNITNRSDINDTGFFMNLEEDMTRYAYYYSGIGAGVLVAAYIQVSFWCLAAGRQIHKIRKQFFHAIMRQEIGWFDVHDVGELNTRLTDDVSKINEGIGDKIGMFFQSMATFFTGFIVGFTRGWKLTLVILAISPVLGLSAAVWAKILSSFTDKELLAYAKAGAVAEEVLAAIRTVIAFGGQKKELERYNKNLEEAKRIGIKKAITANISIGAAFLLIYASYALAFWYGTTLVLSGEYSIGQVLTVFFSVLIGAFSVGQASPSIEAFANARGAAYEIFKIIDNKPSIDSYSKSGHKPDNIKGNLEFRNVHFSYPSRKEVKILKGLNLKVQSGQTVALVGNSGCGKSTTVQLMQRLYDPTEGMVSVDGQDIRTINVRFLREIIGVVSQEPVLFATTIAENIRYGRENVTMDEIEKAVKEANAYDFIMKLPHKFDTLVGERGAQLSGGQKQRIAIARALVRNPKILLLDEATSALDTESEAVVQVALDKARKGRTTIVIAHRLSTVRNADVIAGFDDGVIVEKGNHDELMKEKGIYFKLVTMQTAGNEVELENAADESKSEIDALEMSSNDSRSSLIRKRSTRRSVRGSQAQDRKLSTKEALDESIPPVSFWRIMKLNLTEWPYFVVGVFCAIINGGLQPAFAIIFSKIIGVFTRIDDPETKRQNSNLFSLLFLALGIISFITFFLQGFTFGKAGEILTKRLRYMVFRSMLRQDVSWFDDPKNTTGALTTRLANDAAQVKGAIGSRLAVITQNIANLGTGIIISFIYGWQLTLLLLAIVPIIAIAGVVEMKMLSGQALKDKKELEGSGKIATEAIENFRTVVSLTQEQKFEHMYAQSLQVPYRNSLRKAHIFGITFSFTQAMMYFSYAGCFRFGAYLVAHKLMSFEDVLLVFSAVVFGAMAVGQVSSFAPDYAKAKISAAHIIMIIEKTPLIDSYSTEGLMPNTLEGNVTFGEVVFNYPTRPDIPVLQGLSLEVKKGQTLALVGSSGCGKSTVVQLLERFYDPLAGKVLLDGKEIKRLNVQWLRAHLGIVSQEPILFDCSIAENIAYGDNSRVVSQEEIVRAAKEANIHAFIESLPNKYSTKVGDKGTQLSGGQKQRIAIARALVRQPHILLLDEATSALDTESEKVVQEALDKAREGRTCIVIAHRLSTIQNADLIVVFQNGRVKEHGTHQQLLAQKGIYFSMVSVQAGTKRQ

## COc1cc2c(c(OC)c1OC)-c1ccc(OC)c(=O)cc1[C@@H](NC(C)=O)CC2 [Colchicine]
IMR90-4-derived BMECs; [9]
  Pe value: 15.3 nm/s
IMR90-4-derived BMECs; [10]
  Average Pe: 0.09 ± 0.1 10^−3 cm/min
[1]
  Octanol/water partition coefficient (logD): 1.03

## CN1C(=O)CN=C(c2ccccc2)c2cc(Cl)ccc21 [Diazepam]
IMR90-4-derived BMECs; [9]
  Pe value: 185 nm/s
IMR90-4-derived BMECs; [10]
  Average Pe: 1.11 ± 0.45 10^−3 cm/min

## COc1cccc2c1C(=O)c1c(O)c3c(c(O)c1C2=O)C[C@@](O)(C(=O)CO)C[C@@H]3O[C@H]1C[C@H](N)[C@H](O)[C@H](C)O1 [Doxorubicin]
[2]; [11]
  Transporter recognition: MDR1, BCRP, MRP1, MRP2

## COc1ccc2c3c([nH]c2c1)[C@H](CC(C)C)N1C(=O)[C@H](CCC(=O)OC(C)(C)C)NC(=O)[C@@H]1C3 [Ko143]
[3]
  accumulation of doxorubicin in the presence of inhibitor: increased
[4]
  transport of doxorubicin from the apical to basolateral chamber in the presence of inhibitor: 1.3 fold
[2]; efflux transporter inhibitors (Table 6)
  Transporter recognition: BCRP

## CN(C)C(=O)CCSC(SCCC(=O)O)c1cccc(/C=C/c2ccc3ccc(Cl)cc3n2)c1 (stereo not drawn) [MK 571]
p-glycoprotein
  transport of rhodamine 123 from the apical to basolateral chamber in the presence of inhibitor: not

## COc1cc2nc(N3CCN(C(=O)c4ccco4)CC3)nc(N)c2cc1OC [Prazosin]
IMR90-4-derived BMECs; [9]
  Pe value: 47.7 nm/s
IMR90-4-derived BMECs; [10]
  Average Pe: 0.29 ± 0.04 10^−3 cm/min
[1]
  Octanol/water partition coefficient (logD): 2.16

## OC[C@H]1O[C@@](CO)(O[C@H]2O[C@H](CO)[C@@H](O)[C@H](O)[C@H]2O)[C@@H](O)[C@@H]1O [Sucrose]
[1]
  Octanol/water partition coefficient (logD): −3.3

## CC[C@]1(O)C[C@H]2CN(CCc3c([nH]c4ccccc34)[C@@](C(=O)OC)(c3cc4c(cc3OC)N(C=O)[C@H]3[C@@](O)(C(=O)OC)[C@H](OC(C)=O)[C@]5(CC)C=CCN6CC[C@]43[C@@H]65)C2)C1 [Vincristine]
IMR90-4-derived BMECs; human, 1 h
  Average Pe: 0.06 ± 0.02 10^−3 cm/min
  Pe value: 10.3 nm/s
[1]
  Octanol/water partition coefficient (logD): 2.8

## Oc1nc(-c2ccc(C(F)(F)F)cc2)nc2c1CSCC2 [XAV-939]
[5]; XAV-939 treatment
  claudin-5 or occludin localization: did not alter
[5]; regardless of XAV-939 treatment
  amounts of claudin-5 and occludin by western blots: equal amounts
Wnt/β-catenin pathway
  expression of LEF1, FST, STRA6, FZD6, SLC2A1 and ABCB1 by quantitative RT-PCR: statistically significant downregulation
[6]; IMR90-4, 6D UM 2D EC, 10 μM XAV-939, DMSO control 285
  Mean per cell expression of GLUT-1: 272 A.U.
[6]; IMR90-4, 6D UM 2D EC, 10 μM XAV-939 from day 2 of UM, DMSO control 64%
  % GLUT-1^+/PECAM-1^+: 46%
[6]; IMR90-4, 6D UM 2D EC, 10 μM XAV-939 from day 2 of UM, DMSO control 68%
  % PECAM-1^+ overall: 61%
[6]; IMR90-4, XAV-939 versus DMSO control
  net reduction in the overall number of PECAM-1^+/GLUT-1^+ BMECs: 20%

## O=C1OC2(c3ccc(O)cc3Oc3cc(O)ccc32)c2ccccc21 [sodium fluorescein]
Primary human BMECs
  reported sodium fluorescein Pe: 533 nm/s
[7]
  Papp A→B at 1 μM: 0.367 nm/s
[8]
  Papp A→B at 1 μM: 0.85 nm/s
hCMEC/D3 line
  reported sodium fluorescein Pe: 567 nm/s

## Inulin
IMR90-4-derived BMECs; [10]
  Average Pe: 0.029 ± 0.015 10^−3 cm/min
[2]; compounds of the permeability screen (Table 5)
  Transporter recognition: None
[1]
  Octanol/water partition coefficient (logD): −0.25

## Rhodamine 123
[2]; [11]
  Transporter recognition: MDR1

B1: SFRP2: mouse secreted protein that binds to soluble Wnts and prevents upstream activation of the Wnt pathway (protein, UniProt P97299 25-295, looked up)
Secreted frizzled-related …: LFLFGQPDFSYKRSNCKPIPANLQLCHGIEYQNMRLPNLLGHETMKEVLEQAGAWIPLVMKQCHPDTKKFLCSLFAPVCLDDLDETIQPCHSLCVQVKDRCAPVMSAFGFPWPDMLECDRFPQDNDLCIPLASSDHLLPATEEAPKVCEACKTKNEDDNDIMETLCKNDFALKIKVKEITYINRDTKIILETKSKTIYKLNGVSERDLKKSVLWLKDSLQCTCEEMNDINAPYLVMGQKQGGELVITSVKRWQKGQREFKRISRSIRKLQC
Wnt/β-catenin pathway
  expression of LEF1, FST, STRA6, FZD6, SLC2A1 and ABCB1 by quantitative RT-PCR: statistically significant downregulation
